# Test results as given in patent US11478527B2, “FGF receptor ligands for treating diabetes and obesity” (Albert Einstein College of Medicine, priority 2015, dated 2022).
# Tests used:
# HFD-fed mice [1] = details: U0126 thirty minutes before FGF19 injection
# Procedure: ERK1/2 signaling involved in FGF19-glucose metabolism regulation. […] Mice were treated twice with FGF19 (starting 16 hours after fasting and 6.5 hours apart) and tissues were collected 90 minutes after the last ip injection (2C) Analysis of co-localization between Npy-hrGFP positive neurons (lighter gray) and p-ERK1/2 positive cells (darker gray) in 24 h fasted ob/ob Npy-hrGFP mice following intraperitoneal injections of FGF19. (2D) Quantification of Npy-hrGFP positive neurons that colocalize with pERK1/2 staining in ARC (Bregma −1.7 to −1.9 mm) of ob/ob Npy-hrGFP mice (10 sections from 3 mice were examined in each group). (2E) Representative sections showing absence of co-localization between Pomc-eGFP positive neurons (lighter gray) and p-ERK1/2 positive cells (darker gray) in 24 h fasted ob/ob Pomc-eGFP mice following intraperitoneal injections of FGF19. *P<0.05, ***P<0.005.
# It was assessed whether increased ERK1/2 activation could mediate the glucose lowering effect of FGF19.
# AGRP/NPY neurons = assay: Colocalization of phospho-ERK1/2 with Npy-GFP in ARC after intraperitoneal FGF19; format: in vivo; details: 24 h fasted Npy-hrGFP ob/ob mice
# Procedure: FIG. 2A-2E. ERK1/2 signaling involved in FGF19-glucose metabolism regulation.
# The neuronal population targeted by FGF19 was investigated. 24 h fasted Npy-hrGFP transgenic mice deficient in leptin (Npy-hrGFP ob/ob), in which AGRP/NPY neurons in ARC appear GFP+, were injected intraperitoneally with FGF19 and the colocalization between phospho-ERK1/2 and Npy-GFP was analyzed in ARC. […] Overall, the data support that central FGF19 improved glucose metabolism required activation of ERK1/2 signaling and that AGRP/NPY neurons are a likely mediator of FGF19 action.
# POMC neurons = assay: Colocalization of phospho-ERK1/2 with Pomc-eGFP in ARC after intraperitoneal FGF19; format: in vivo; details: 24 h fasted Pomc-eGFP ob/ob mice
# HFD-fed mice [2] = details: FGF19 injected centrally and peripherally; previously shown (3); cited from earlier work
# [3] = tested on: hypothalamic AGRP/NPY neurons; details: cited from earlier work
# 8 month old outbred mice = assay: Oral glucose tolerance test after intraparenchymal injection of peptide into the mediobasal hypothalamus; format: in vivo
# Procedure: A peptide of 13 amino acids ([…]) (SEQ ID NO:4) was synthesized based on the conserved sequences between the FGF8 and FGF17 b splice isoforms and the helical nature of this region of FGF8 based on a published crystal structure. This peptide was injected intraparenchymally into the mediobasal hypothalamus of 8 month old outbred mice. Having been fasted overnight, the mice were subjected to an oral glucose tolerance test (2 mg/g of glucose) using a crossover design to obtain a control condition. […] With aCSF, the median area under the curve for the 3 hour GTT was 43,747 mg-min/dL whereas it was […] with F8b13. Blood glucose concentrations were not different before the glucose load. These FGF derived peptide antagonists are useful as therapeutic agents in diabetes and obesity conditions.
compound,measurement,setting,value
N#CC(=C(/N)Sc1ccccc1N)/C(C#N)=C(\N)Sc1ccccc1N [U0126],effect of U0126 pre-treatment on the glucose lowering effect of FGF19,HFD-fed mice [1],blocked the glucose lowering effect of FGF19
FGF19: endocrine fibroblast growth factor,colocalization of FGF19-induced pERK1/2 staining with NPY-GFP+ neurons in ARC,AGRP/NPY neurons,colocalized with NPY-GFP+ neurons
same,colocalization of Pomc-eGFP positive neurons with pERK1/2 staining in ARC,POMC neurons,do not colocalize
same,glucose handling in obese mice (ob/ob) and high fat fed mice,HFD-fed mice [2],could improve glucose handling
same,induction of AGRP and NPY mRNA,[3]; mice fasted overnight,prevented the induction of AGRP and NPY mRNA
same,ERK1/2 activation in hypothalamic AGRP/NPY neurons,"[3]; mouse, in vivo",activated ERK1/2
same,FOS in hypothalamic AGRP/NPY neurons,"[3]; mouse, in vivo",FOS was reduced
same,effects on POMC neurons,"[3]; mouse, in vivo",no effects
PNFTQHVREQSLV (peptide fragment based on human sequence) [F8b13],glucose tolerance compared to the same mice after aCSF,"8 month old outbred mice; oral GTT 2 mg/g glucose, overnight fast, crossover design",improved glucose tolerance
same,median area under the curve for the 3 hour GTT,"8 month old outbred mice; oral GTT 2 mg/g glucose, overnight fast, crossover vs aCSF, intraparenchymal injection into mediobasal hypothalamus",33500 mg·min/dL
same,blood glucose concentrations before the glucose load,"8 month old outbred mice; overnight fasted, vs aCSF",not different
